Measurements taken from patent US20260116910A1, “POLYCYCLIC COMPOUNDS AND METHODS THEREOF” (HEPAITECH (BEIJING) BIOPHARMA TECHNOLOGY CO., LTD., priority 2021, published 2026).

Assays:
[1] = target: T1, human FXR (NR1H4) (Homo sapiens, UniProt Q96RI1); assay: Human FXR (NR1H4) agonist assessment, FXRE-NanoLuc reporter in HEK293T cells; format: cell-based; conditions: FXR activation, HEK293T FXRE-NanoLuc reporter, 24 hr; for EC50: read-out: EC50
T1 sequence (Q96RI1 1-476 isoform Q96RI1-1): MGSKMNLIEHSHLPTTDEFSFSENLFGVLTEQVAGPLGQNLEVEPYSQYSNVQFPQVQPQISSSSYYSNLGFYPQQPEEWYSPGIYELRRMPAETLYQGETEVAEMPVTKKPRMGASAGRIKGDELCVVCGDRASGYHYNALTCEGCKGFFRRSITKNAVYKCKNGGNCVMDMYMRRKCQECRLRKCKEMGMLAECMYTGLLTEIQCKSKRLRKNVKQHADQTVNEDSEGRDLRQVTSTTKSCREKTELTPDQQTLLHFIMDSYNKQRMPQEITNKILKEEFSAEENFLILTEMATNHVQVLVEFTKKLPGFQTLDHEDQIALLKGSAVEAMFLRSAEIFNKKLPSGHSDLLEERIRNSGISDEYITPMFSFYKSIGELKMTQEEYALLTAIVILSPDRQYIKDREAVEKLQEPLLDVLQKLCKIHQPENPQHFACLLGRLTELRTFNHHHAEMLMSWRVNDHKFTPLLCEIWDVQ
Summary of the method: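 HEK293T cells stably expressing human FXR with an FXRE-NanoLuc reporter were treated with compounds for 24 hr at 37 °C, with 0.01% DMSO as negative control. Medium was read for luminescence after 5 min with coelenterazine. EC50 was fitted by sigmoid to concentration-response data.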

[2] = target: MRGPRX4 (Homo sapiens, UniProt Q96LA9); assay: MRGPRX4 activation, Fluo-8 Ca2+ FLIPR assay in HEK293T cells stably expressing MRGPRX4; format: cell-based; design: key to MRGPRX4 activation, Average / MRGPRX4 activation, Ave.: fluorescence change dF/F0; conditions: for EC50: MRGPRX4 activation, Ca2+ fluorescence, no activation in tested range reported as III, read-out: Activity (EC50 μM)
Summary of the method: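 Cells seeded overnight to >95% confluence, loaded 40-60 min at room temperature with 2 μM Fluo-8 AM, then kept in HHBS. Baseline read 30 s, compound added, signal followed 150 s more.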

Chain of MRGPRX4 (Q96LA9 whole entry): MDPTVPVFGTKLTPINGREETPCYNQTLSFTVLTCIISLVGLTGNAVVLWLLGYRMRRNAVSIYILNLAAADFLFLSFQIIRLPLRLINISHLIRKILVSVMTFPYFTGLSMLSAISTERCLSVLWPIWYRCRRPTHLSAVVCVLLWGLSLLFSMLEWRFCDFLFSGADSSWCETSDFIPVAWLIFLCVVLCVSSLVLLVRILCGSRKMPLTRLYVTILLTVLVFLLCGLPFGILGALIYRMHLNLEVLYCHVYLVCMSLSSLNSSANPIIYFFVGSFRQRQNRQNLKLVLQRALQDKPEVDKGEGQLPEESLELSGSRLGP

Row | SMILES | Efficacy (maximum measured induction of NanoLuc, normalized to CDCA set as 100%) [1] | EC50 [1] | MRGPRX4 activation, fluorescence change (dF/F0), Average ([2]; Conc. (Log[M]) −4.0) | MRGPRX4 activation, fluorescence change (dF/F0), Average ([2]; Conc. (Log[M]) −4.5) | MRGPRX4 activation, fluorescence change (dF/F0), Average ([2]; Conc. (Log[M]) −5.0) | MRGPRX4 activation, fluorescence change (dF/F0), Average ([2]; Conc. (Log[M]) −5.4) | MRGPRX4 activation, fluorescence change (dF/F0), Average ([2]; Conc. (Log[M]) −5.9) | MRGPRX4 activation, fluorescence change (dF/F0), Average ([2]; Conc. (Log[M]) −6.4) | MRGPRX4 activation, fluorescence change (dF/F0), Average ([2]; Conc. (Log[M]) −6.9) | EC50 [2] | MRGPRX4 activation, Average ([2]; E3-9, Conc. (Log[M]) −4.0) | MRGPRX4 activation, Average ([2]; E3-9, Conc. (Log[M]) −4.5) | MRGPRX4 activation, Average ([2]; E3-9, Conc. (Log[M]) −5.0) | MRGPRX4 activation, Average ([2]; E3-9, Conc. (Log[M]) −5.4) | MRGPRX4 activation, Average ([2]; E3-9, Conc. (Log[M]) −5.9) | MRGPRX4 activation, Average ([2]; E3-9, Conc. (Log[M]) −6.4) | MRGPRX4 activation, Average ([2]; E3-9, Conc. (Log[M]) −6.9) | MRGPRX4 activation, Average ([2]; E3-9, Conc. (Log[M]) −7.3) | MRGPRX4 activation, Average ([2]; E3-9, Conc. (Log[M]) −7.8) | MRGPRX4 activation, Average ([2]; E3-9, Conc. (Log[M]) −8.3) | further results
1 | CC[C@H]1[C@@H](O)[C@@H]2[C@H](CC[C@]3(C)[C@@H]([C@H](C)CCNC(=O)NS(=O)(=O)c4ccc(C(C)(C)CN)cc4)CC[C@@H]23)[C@@]2(C)CCCC[C@@H]12 [5-18] | B (300%<efficacy <=400%) | < 1 µM | 0.018 | 0.008 | 0.021 | 0.021 | 0.021 | 0.021 | 0.011 | > 100 µM | – | – | – | – | – | – | – | – | – | – | MRGPRX4 activation, fluorescence change (dF/F0), Average ([2]; Conc. (Log[M]) −7.3): 0.018; MRGPRX4 activation, fluorescence change (dF/F0), Average ([2]; Conc. (Log[M]) −7.8): 0.020; MRGPRX4 activation, fluorescence change (dF/F0), Average ([2]; Conc. (Log[M]) −8.3): 0.013
2 | CC[C@H]1[C@@H](O)[C@@H]2[C@H](CC[C@]3(C)[C@@H]([C@H](C)CCNC(=O)NS(=O)(=O)c4ccc(C5(CO)CCCC5)cc4)CC[C@@H]23)[C@@]2(C)CCCC[C@@H]12 [5-21] | C (100%<efficacy <=300%) | < 1 µM | 0.018 | 0.016 | 0.020 | 0.018 | 0.018 | 0.016 | 0.018 | > 100 µM | – | – | – | – | – | – | – | – | – | – | MRGPRX4 activation, fluorescence change (dF/F0), Average ([2]; Conc. (Log[M]) −7.3): 0.016; MRGPRX4 activation, fluorescence change (dF/F0), Average ([2]; Conc. (Log[M]) −7.8): 0.020; MRGPRX4 activation, fluorescence change (dF/F0), Average ([2]; Conc. (Log[M]) −8.3): 0.018
3 | CC[C@H]1[C@@H](O)[C@@H]2[C@H](CC[C@]3(C)[C@@H]([C@H](C)CCNC(=O)NS(=O)(=O)c4ccc(C(C)(CO)CO)cc4)CC[C@@H]23)[C@@]2(C)CCCC[C@@H]12 [5-22] | C (100%<efficacy <=300%) | < 1 µM | 0.020 | 0.018 | 0.013 | 0.013 | 0.011 | 0.016 | 0.016 | > 100 µM | – | – | – | – | – | – | – | – | – | – | MRGPRX4 activation, fluorescence change (dF/F0), Average ([2]; Conc. (Log[M]) −7.3): 0.018; MRGPRX4 activation, fluorescence change (dF/F0), Average ([2]; Conc. (Log[M]) −7.8): 0.014; MRGPRX4 activation, fluorescence change (dF/F0), Average ([2]; Conc. (Log[M]) −8.3): 0.016
4 | CC[C@H]1[C@@H](O)[C@@H]2[C@H](CC[C@]3(C)[C@@H]([C@H](C)CCNC(=O)NS(=O)(=O)c4cc(F)ccc4F)CC[C@@H]23)[C@@]2(C)CCCC[C@@H]12 [5-23] | A (efficacy >400%) | < 1 µM | – | – | – | – | – | – | – | > 100 µM | – | – | – | – | – | – | – | – | – | – | MRGPRX4 activation, Ave. ([2]; E3-7, Conc. (Log[M]) −4): −0.027; MRGPRX4 activation, Ave. ([2]; E3-7, Conc. (Log[M]) −4.5): −0.027; MRGPRX4 activation, Ave. ([2]; E3-7, Conc. (Log[M]) −5): −0.014; MRGPRX4 activation, Ave. ([2]; E3-7, Conc. (Log[M]) −5.5): −0.054; MRGPRX4 activation, Ave. ([2]; E3-7, Conc. (Log[M]) −6): −0.041; MRGPRX4 activation, Ave. ([2]; E3-7, Conc. (Log[M]) −7): 0.000
5 | CC[C@H]1[C@@H](O)[C@@H]2[C@H](CC[C@]3(C)[C@@H]([C@H](C)CCNC(=O)NS(=O)(=O)c4cc(F)cc(F)c4)CC[C@@H]23)[C@@]2(C)CCCC[C@@H]12 [5-24] | B (300%<efficacy <=400%) | < 1 µM | 0.021 | 0.012 | 0.021 | 0.019 | 0.011 | 0.013 | 0.013 | – | – | – | – | – | – | – | – | – | – | – | MRGPRX4 activation, fluorescence change (dF/F0), Average ([2]; Conc. (Log[M]) −7.3): 0.013; MRGPRX4 activation, fluorescence change (dF/F0), Average ([2]; Conc. (Log[M]) −7.8): 0.008; MRGPRX4 activation, fluorescence change (dF/F0), Average ([2]; Conc. (Log[M]) −8.3): 0.011
6 | CC[C@H]1[C@@H](O)[C@@H]2[C@H](CC[C@]3(C)[C@@H]([C@H](C)CCNC(=O)NS(=O)(=O)c4cccs4)CC[C@@H]23)[C@@]2(C)CCCC[C@@H]12 [5-25] | C (100%<efficacy <=300%) | 1 to 10 µM | – | – | – | – | – | – | – | > 100 µM | 0.393 | 0.016 | 0.001 | 0.016 | 0.011 | 0.011 | 0.008 | 0.013 | 0.013 | 0.018 | –
7 | CC[C@H]1[C@@H](O)[C@@H]2[C@H](CC[C@]3(C)[C@@H]([C@H](C)CCNC(=O)NS(=O)(=O)c4ccc5c(c4)CCC(C)(C)O5)CC[C@@H]23)[C@@]2(C)CCCC[C@@H]12 [5-29] | A (efficacy >400%) | < 1 µM | – | – | – | – | – | – | – | > 100 µM | 0.014 | 0.014 | 0.010 | 0.018 | 0.016 | 0.018 | 0.018 | 0.016 | 0.020 | 0.018 | –
8 | CC[C@H]1[C@@H](O)[C@@H]2[C@H](CC[C@]3(C)[C@@H]([C@H](C)CCNC(=O)NS(=O)(=O)c4ccc(N5CCCCC5)nc4)CC[C@@H]23)[C@@]2(C)CCCC[C@@H]12 [5-30] | A (efficacy >400%) | < 1 µM | – | – | – | – | – | – | – | > 100 µM | 0.014 | 0.018 | 0.014 | 0.027 | 0.018 | 0.023 | 0.021 | 0.025 | 0.018 | 0.028 | –
9 | CC[C@H]1[C@@H](O)[C@@H]2[C@H](CC[C@]3(C)[C@@H]([C@H](C)CCNS(=O)(=O)c4cc(F)ccc4F)CC[C@@H]23)[C@@]2(C)CCCC[C@@H]12 [6-2] | C (100%<efficacy <=300%) | 1 to 10 µM | – | – | – | – | – | – | – | > 100 µM | 0.030 | 0.023 | 0.013 | 0.020 | 0.016 | 0.016 | 0.016 | 0.018 | 0.011 | 0.018 | –
10 | CC[C@H]1[C@@H](O)[C@@H]2[C@H](CC[C@]3(C)[C@@H]([C@H](C)CCNS(=O)(=O)C[C@]45CC[C@H](CC4=O)C5(C)C)CC[C@@H]23)[C@@]2(C)CCCC[C@@H]12 [6-3] | C (100%<efficacy <=300%) | 1 to 10 µM | – | – | – | – | – | – | – | > 100 µM | 0.016 | 0.008 | 0.020 | 0.016 | 0.018 | 0.018 | 0.011 | 0.018 | 0.020 | 0.013 | –
11 | CC[C@H]1[C@@H](O)[C@@H]2[C@H](CC[C@]3(C)[C@@H]([C@H](C)CCNS(=O)(=O)CC(C)C)CC[C@@H]23)[C@@]2(C)CCCC[C@@H]12 [6-4] | C (100%<efficacy <=300%) | > 10 µM | – | – | – | – | – | – | – | > 100 µM | 0.027 | 0.011 | 0.011 | 0.018 | 0.016 | 0.011 | 0.018 | 0.018 | 0.020 | 0.018 | –
